The results in this text go back to patent US6150385A, “1,3,4-thiadiazoles useful for the treatment of CMV infections” (Pharmacia & Upjohn Company, priority 1999, dated 2000).

T1 sequence (P08546 whole entry): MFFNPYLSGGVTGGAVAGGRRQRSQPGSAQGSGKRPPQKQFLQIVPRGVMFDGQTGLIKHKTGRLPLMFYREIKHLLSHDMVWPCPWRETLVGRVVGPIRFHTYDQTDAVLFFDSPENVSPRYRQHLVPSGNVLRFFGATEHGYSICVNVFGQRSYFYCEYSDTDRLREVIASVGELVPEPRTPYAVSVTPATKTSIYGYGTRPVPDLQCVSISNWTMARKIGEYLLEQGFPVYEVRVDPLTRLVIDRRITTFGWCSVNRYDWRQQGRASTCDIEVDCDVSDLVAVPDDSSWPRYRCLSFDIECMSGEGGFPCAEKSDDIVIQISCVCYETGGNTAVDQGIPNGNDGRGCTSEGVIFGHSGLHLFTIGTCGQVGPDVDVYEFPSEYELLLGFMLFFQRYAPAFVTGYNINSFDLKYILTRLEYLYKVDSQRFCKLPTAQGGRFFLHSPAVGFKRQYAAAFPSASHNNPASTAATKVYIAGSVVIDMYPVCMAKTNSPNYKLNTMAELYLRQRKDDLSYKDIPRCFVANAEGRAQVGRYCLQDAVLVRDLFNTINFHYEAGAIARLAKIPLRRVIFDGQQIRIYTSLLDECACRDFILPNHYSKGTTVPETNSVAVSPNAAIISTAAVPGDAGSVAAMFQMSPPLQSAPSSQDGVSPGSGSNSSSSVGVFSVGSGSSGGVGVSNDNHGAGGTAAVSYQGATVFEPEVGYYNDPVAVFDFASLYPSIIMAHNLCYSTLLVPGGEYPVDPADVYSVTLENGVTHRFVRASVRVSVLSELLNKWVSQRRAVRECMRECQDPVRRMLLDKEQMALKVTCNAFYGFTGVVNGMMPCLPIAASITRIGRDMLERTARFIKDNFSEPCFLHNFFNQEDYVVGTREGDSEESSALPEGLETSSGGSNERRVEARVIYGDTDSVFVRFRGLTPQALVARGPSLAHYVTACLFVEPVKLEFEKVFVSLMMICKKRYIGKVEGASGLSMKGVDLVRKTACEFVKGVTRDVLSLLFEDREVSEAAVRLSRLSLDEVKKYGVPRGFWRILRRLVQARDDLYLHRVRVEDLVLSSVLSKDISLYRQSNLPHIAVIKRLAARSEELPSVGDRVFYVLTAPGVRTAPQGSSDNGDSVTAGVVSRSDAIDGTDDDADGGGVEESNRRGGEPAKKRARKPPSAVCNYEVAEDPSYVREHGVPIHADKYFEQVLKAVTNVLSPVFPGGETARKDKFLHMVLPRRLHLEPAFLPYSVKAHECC

This assay addresses T1, HCMV polymerase (Human cytomegalovirus, UniProt P08546).
T1 construct: made in house; host or cells: SF-9 insect cells infected with recombinant baculovirus
Put plainly: HCMV polymerase assay (scintillation proximity assay). The assay is classed as biochemical. The note with it: percentage of inhibition at 25 μM concentration in CMV polymerase assay. The method, boiled down:
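Baculovirus/SF-9-expressed HCMV polymerase in 5.4 mM HEPES pH 7.5, 11.7 mM KCl, 4.5 mM MgCl2, 0.36 mg/ml BSA, 90 nM 3H-dTTP, with or without 2 mM CHAPS. Started with 6 nM biotinylated poly(dA)-oligo(dT), 30 min at 25 or 37 °C, EDTA-stopped, read by streptavidin-SPA counting; % inhibition at 25 μM.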
In general terms: SPA uses beads or plates that emit light when radiolabelled molecules are held near them.
With `O=C(Nc1nnc(NCCCn2ccnc2)s1)c1ccc(Cl)c(Cl)c1` [compound 202, 3,4-dichloro-N-(5-{[3-(1H-imidazol-1-yl)propyl]amino}-1,3,4-thiadiazol-2-yl)benzamide], testing at 25 µM gave an inhibition of 45%.
For the compound `CCOC(=O)N1CCC(Nc2nnc(NC(=O)c3cc4ccccc4s3)s2)CC1` [compound 368, ethyl 4-({5-[(1-benzothiophen-2-ylcarbonyl)amino]-1,3,4-thiadiazol-2-yl}amino)tetrahydro-1(2H)-pyridinecarboxylate], the inhibition (as a rule, the drop in the measured response relative to a control, in per cent) at 25 µM came to 28.5%.
The figure for `N#Cc1ccc(C(=O)Nc2nnc(NCc3ccc4c(c3)OCO4)s2)cc1` [compound 471, N-{5-[(1,3-benzodioxol-5-ylmethyl)amino]-1,3,4-thiadiazol-2-yl}-4-cyanobenzamide] is 20%.
The figure for `O=C(Nc1nnc(NCCCN2CCCC2=O)s1)c1cccc([N+](=O)[O-])c1` [compound 135, 3-nitro-N-(5-{[3-(2-oxo-1-pyrrolidinyl)propyl]amino}-1,3,4-thiadiazol-2-yl)benzamide] is 56.6%; for `CCOC(=O)N1CCC(Nc2nnc(NC(=O)/C=C/c3ccccc3Cl)s2)CC1` [compound 344] it is 31.1%; for `O=C(CCCCCl)Nc1nnc(NCCSc2ccccc2)s1` [compound 254, 5-chloro-N-(5-{[2-(phenylsulfanyl)ethyl]amino]-1,3,4-thiadiazol-2-yl)pentanamide] it is 40%.
The figure for `Cc1ccc(C(=O)Nc2nnc(NCCCCc3ccccc3)s2)cc1` [compound 356, 4-methyl-N-{5-[(4-phenylbutyl)amino]-1,3,4-thiadiazol-2-yl}benzamide] is 29.6%.
As for `O=C(Nc1nnc(NCCCCc2ccccc2)s1)c1ccc(Br)cc1` [compound 170, 4-bromo-N-{5-[(4-phenylbutyl)amino]-1,3,4-thiadiazol-2-yl}benzamide], the inhibition at 25 µM amounted to 50.5%.
Regarding `O=C(/C=C/c1ccccc1)Nc1nnc(NC2CCN(Cc3ccccc3)CC2)s1` [compound 290, (E)-N-{5-[(1-benzyl-4-piperidinyl)amino]-1,3,4-thiadiazol-2-yl}-3-phenyl-2-propenamide], the inhibition at 25 µM was found to be 35.9%.
The figure for `O=C(/C=C/c1ccccc1)Nc1nnc(NCc2ccc(Cl)c(Cl)c2)s1` [compound 333, (E)-N-{5-[(3,4-dichlorobenzyl)amino]-1,3,4-thiadiazol-2-yl}-3-phenyl-2-propenamide] is 31.9%; for `O=C(Nc1nnc(NCc2ccncc2)s1)c1ccc(I)cc1` [compound 289, 4-iodo-N-{5-[(4-pyridinylmethyl)amino]-1,3,4-thiadiazol-2-yl}benzamide] it is 36%.
With `CCCCCCCC/C=C/CCCCCCCC(=O)Nc1nnc(NCc2ccc(F)cc2)s1` [compound 48, (E)-N-{5-[(4-fluorobenzyl)amino]-1,3,4-thiadiazol-2-yl}-9-octadecenamide] the figure was 81.5%; with `CC(C)c1cc(C(C)C)c(C(=O)Nc2nnc(NCCCn3ccnc3)s2)c(C(C)C)c1` [compound 87, N-(5-{[3-(1H-imidazol-1-yl)propyl]amino}-1,3,4-thiadiazol-2-yl)-2,4,6-triisopropylbenzamide], 67%.
The figure for `O=C(Nc1nnc(NCc2ccncc2)s1)c1ccc(Cl)c(Cl)c1` [compound 263, 3,4-chloro-N-{5-[(4-pyridinylmethyl)amino]-1,3,4-thiadiazol-2-yl}benzamide] is 39.4%; for `O=C(Nc1nnc(NCCC(c2ccccc2)c2ccccc2)s1)c1c(Cl)cccc1Cl` [compound 63, 2,6-dichloro-N-{5-[(3,3-diphenylpropyl)amino]1,3,4-thiadiazol-2-yl}benzamide] it is 73.8%; for `CCCCCCCC/C=C/CCCCCCCC(=O)Nc1nnc(NCc2ccc3c(c2)OCO3)s1` [compound 53, (E)-N-{5-[(1,3-benzodioxol-5-ylmethyl)amino]-1,3,4-thiadiazol-2-yl}-9-octadecenamide] it is 77.9%.
The compound `CC1(C)C2CC[C@@H](CNc3nnc(NC(=O)c4ccc([N+](=O)[O-])o4)s3)C1C2` (stereo partly drawn) [compound 209, N-[5-({[(2R)-6,6-dimethylbicyclo[3.1.1]hept-2-yl]methyl}amino)-1,3,4-thiadiazol-2-yl]-5-nitro-2-furamide] yielded an inhibition at 25 µM of 44.7%.
With `O=C(Nc1nnc(NCCCN2CCCC2=O)s1)c1ccc(I)cc1` [compound 203, 4-iodo-N-(5-{[3-(2-oxo-1-pyrrolidinyl)propyl]amino}-1,3,4-thiadiazol-2-yl)benzamide] the figure was 45%.
The figure for `O=C(Nc1nnc(NCCc2cccs2)s1)c1ccc(F)cc1F` [compound 445] is 21.9%; for `O=C(Nc1nnc(NCC2CCCCC2)s1)c1ccc(F)cc1F` [compound 433, N-{5-[(cyclohexylmethyl)amino]-1,3,4-thiadiazol-2-yl}-2,4-difluorobenzamide] it is 22.9%.
In turn, `O=C(/C=C/c1ccccc1Cl)Nc1nnc(NCc2cccs2)s1` [compound 164, (E)-3-(2-chlorophenyl)-N-{5-[(2-thienylmethyl)amino]-1,3,4-thiadiazol-2-yl}-2-propenamide] had an inhibition at 25 µM of 51.4%.
`O=C(/C=C/c1ccccc1Cl)Nc1nnc(NCc2cccc3ccccc23)s1` [compound 443, (E)-3-(2-chlorophenyl)-N-{5-[(1-naphthylmethyl)amino]-1,3,4-thiadiazol-2-yl]-2propenamide] had an inhibition at 25 µM of 22.1%.
The figure for `CCCCCCCCCCCNc1nnc(NC(=O)c2ccc3c(c2)C(=O)OC3=O)s1` [compound 4, 1,3-dioxo-N-[5-(undecylamino)-1,3,4-thiadiazol-2-yl]-1,3-dihydro-2-benzofuran-5-carboxamide] is 100%.
`O=C(Nc1nnc(NCCCNC2CCCCC2)s1)c1ccc(C(F)(F)F)cc1` [compound 112, N-(5-{[3-(cyclohexylamino)propyl]amino}-1,3,4-thiadiazol-2-yl)-4-(trifluoromethyl)benzamide] gave an inhibition at 25 µM of 62.5%.
As to `O=C(Nc1nnc(NC2CCCCCC2)s1)c1ccc([N+](=O)[O-])o1` [compound 104, N-[5-(cycloheptylamino)-1,3,4-thiadiazol-2-yl]-5-nitro-2-furamide], the inhibition at 25 µM stood at 64.7%.
The figure for `Cc1ccc(C(=O)Nc2nnc(NC3CCCCCC3)s2)cc1` [compound 323, N-[5-(cycloheptylamino)-1,3,4-thiadiazol-2-yl]-4-methylbenzamide] is 33%.
`CC(C)(C)CNc1nnc(NC(=O)c2c(Cl)cccc2Cl)s1` [compound 392, 2,6-dichloro-N-[5-(neopentylamino)-1,3,4-thiadiazol-2-yl]benzamide] yielded an inhibition at 25 µM of 26.2%.
With `Cc1ccc(C(=O)Nc2nnc(NCCc3ccccc3)s2)cc1` [compound 359, 4-methyl-N-[5-(phenethylamino)-1,3,4-thiadiazol-2-yl]benzamide] the figure was 29.1%; with `N#CCCNc1nnc(NC(=O)c2c(Cl)cccc2Cl)s1` [compound 146, 2,6-dichloro-N-{5-[(2-cyanoethyl)amino]-1,3,4-thiadiazol-2-yl}benzamide], 54.8%; with `CCOc1ccc2ccccc2c1C(=O)Nc1nnc(NC2CCC2)s1` [compound 314, N-[5-(cyclobutylamino)-1,3,4-thiadiazol-2-yl]-2-ethoxy-1-naphthamide], 33.8%.
